Test results taken from article PMC6770581, “New Thalidomide-Resembling Dicarboximides Target ABC50 Protein and Show Antileukemic and Immunomodulatory Activities” (Biomolecules, 2019).

What was measured:
Assay type in all cases: cell-based, human
caspases 8/9 [1] = assay: Caspase-Glo 8 and 9 luminescent activity assay in K562 cells; settings: K562, 5× IC50, 6 h, control 1% DMSO = 1.0
Description: (§1) Louis, MO). The induction of cell apoptosis was analyzed by Apo-ONE® Homogeneous Caspase-3/7 Assay (Promega, Madison, WI, USA). […] The fluorescence in each well was measured in triplicate (excitation at 485 nm, emission measured at 520 nm) using a microplate reader FLUOStar Omega (BMG-Labtech, Offenburg, Germany). For normalization of the data, the caspase activity in the control cells (exposed to 1% DMSO) was taken as 1.0. […] Luminescence was measured (in triplicate) using a microplate reader FLUOStar Omega. For normalization of the data, the caspase activity in the control cells (exposed to 1% DMSO) was taken as 1.0.

[2] = tested on: BAX, PMAIP1, HTRA2, TNFRSF 10B, ESRRBL1 mRNA; assay: Real-time RT-qPCR of apoptosis-related mRNAs in K562 cells; settings: K562, 18 h, 3 10 µM, 6 5 µM (5× IC50), relative to 1% DMSO, normalized to GAPDH
Description: The total RNA pool was isolated from the cells lysates using TriPure Isolation Reagent (Roche, Basel, Switzerland) according to the manufacturer's instruction. Purity and integrity of RNA was checked spectrophotometrically with a NanoDrop ND-1000 spectrophotometer (Thermo Fisher Scientific, Waltham, MA, USA) and Agilent 2100 Bioanalyzer instrument. […] Reverse transcription and polymerase chain reaction (RT-PCR) amplification reactions were performed in one step using a LightCycler® 1.0 Instrument (Roche) and LightCycler RNA Amplification Kit SYBR Green I (Roche). […] The qRT-PCR reactions were optimized for each studied gene and performed according to a general protocol: a reverse transcription reaction (RT) for 10 min. at 55 °C, and a denaturation step for 30 s at 95 °C. The three steps of PCR quantification reaction included: I-denaturation (0 s at 95 °C), II-annealing (10 s at 60 °C), III-product extension (8 s at 72 °C), 45 cycles in total. Subsequent melting experiments were performed by quick denaturation at 95 °C, annealing over 10 s at 65 °C and heating up to 95 °C at 0.1 °C/s. The BAX, PMAIP1, HTRA2, TNFRSF 10B, and ESRRBL1 mRNA levels were normalized against a reference GAPDH mRNA. […]

MOLT-4 cells = assay: Annexin V/PI flow cytometry of apoptosis, MOLT-4; settings: MOLT-4, 3 h, 5× IC50 (3 45 µM, 6 20 µM, 5 100 µM)
Description: The phosphatidylserine on the extracellular side of cell membranes was quantified using an FITC Annexin V Apoptosis Detection Kit I (BD Pharmingen, San Diego, CA, USA) according to the manufacturer’s instruction. 10^6 cells were seeded on a 6-well plate (Nunc). […] The control cells were exposed to 1% DMSO or 1μM staurosporine. After treatment the cells were centrifuged at 700 rpm (120× g) for 5 min, washed twice with cold PBS and then resuspended in 1x binding buffer to a density of 10^6 cells/ml. 100 µL of the resuspended cells was stained in the dark with 5 μl of Annexin V-fluoroscein isothiocyanate (FITC) solution and 10 µL propidium iodide (PI) solution for 15 min at room temperature. The samples were then diluted with 400 μL of a binding buffer and within 1 h analyzed with a flow cytometer (BD FACSCalibur^TM, BD Biosciences, San Jose, CA, USA). After treatment, four populations of cells were assessed: (1) viable (neither apoptotic nor necrotic, Annexin V-FITC and PI negative), (2) apoptotic (Annexin V-FITC positive and PI negative), (3) late apoptotic (Annexin V-FITC and PI positive), and (4) necrotic (Annexin V-FITC negative and PI positive).

caspases 8/9 [3] = assay: Caspase-Glo 8 and 9 luminescent activity assay in MOLT-4 cells; settings: MOLT-4, 5× IC50, 3 h, control 1% DMSO = 1.0
Description: as §1

caspase 8 and caspase 9 = assay: Western blot of caspase 8 and caspase 9 cleavage in K562 cells; settings: K562, 5 µM
Description: 0.15 × 10^6 cells/ml were seeded on a 6-well plate (Nunclon, Thermo Fisher Scientific, Waltham, MA, USA). Following 24 hour preincubation the cells were treated with either the compound or 1% DMSO (control) for 24 or 48 hours. Cells were lysed using RIPA Buffer (Sigma) supplemented with Complete Protease Inhibitor Coctail (Roche, Basel, Switzerland) and PhosSTOP (Roche). Samples containing 20 µg protein were resuspended in 4× Laemmli’s Buffer (Biorad, Hercules, CA, USA), separated on 10% acrylamide gel (TGX Stain-Free Gel Kit, Biorad) and blotted onto nitrocellulose membrane (Panreac Applichem ITW, Darmstadt, Germany). Blots were blocked in 5% non-fat dry milk in TBST (1% (v/v) Tween-20, 140 mM NaCl, 25 mM Trizma, pH = 7.4 adjusted with HCl) for 1 h and incubated overnight with the antibodies against caspase-9 (9502), caspase-8 (9746), caspase-3 (9662), caspase-3 cleaved (9661) and β-actin (3700), all from Cell Signaling Technology, and antibody against poly(ADP-ribose)polymerase (PARP, 551025) from BD Pharmingen. Membranes were incubated with appropriate species-specific secondary antibodies conjugated with HRP (Cell Signaling Technology, Danvers, MA, USA). Blots were developed using ECL substrate (Biorad, Hercules, CA, USA). The experiment was performed in at least three independent biological replicates.

SMILES | increase of activity of caspases 8/9 compared to the control (caspases 8/9 [1]) | expression of mRNAs of receptor (TNFRSF 10B, ESRRBL1) and mitochondrial (BAX, PMAIP1, HTRA2) apoptotic pathways [2] | apoptotic cells (MOLT-4 cells) | activation of caspases 8/9 compared to the control (caspases 8/9 [3]) | cleavage of caspase 8 and caspase 9 (Western blot) (caspase 8 and caspase 9; 24 h) | cleavage of caspase 8 and caspase 9 (Western blot) (caspase 8 and caspase 9; 48 h)
CCC12C(=O)C(CC)(C(c3ccccc3)=C1c1ccccc1)C1C(=O)N(CCN3CCCCC3)C(=O)C12 (centres unmarked) [Compound 3] | more than 2 fold | significantly induced | about 76% | more than 10 fold |  | 
CCC12C(=O)C(CC)(C(c3ccccc3)=C1c1ccccc1)C1C(=O)N(CC(O)CNC(C)C)C(=O)C12 (centres unmarked) [Compound 5] |  |  | ~78% |  | cleaved form of caspase 9 | Cleaved (i.e., activated) forms of caspases 8/9 were detected
CN(C)CCN1C(=O)C2C(C1=O)C1(c3ccccc3)CC2(c2ccccc2)C(c2ccccc2)=C1c1ccccc1 (centres unmarked) [Compound 6] | more than 2 fold | significantly induced | ~99% | more than 10 fold |  | 
